From ChEMBL document CHEMBL5608163, “Structure modification of anoplin for fighting resistant bacteria” (Eur J Med Chem, 2024)
Square brackets hold non-standard residues; d marks the D form. Peptide text beside a SMILES is read from it. NMeI = CC[C@H](C)[C@H](NC)C(=O)O; NMeL = CN[C@@H](CC(C)C)C(=O)O; NMeK = CN[C@@H](CCCCN)C(=O)O

Tests used:
Format in all cases: functional
[1] = test system: Klebsiella pneumoniae; assay: Antimicrobial activity against Klebsiella pneumoniae ATCC 700603 assessed as reduction in microbial growth incubated for 18 hrs by Mueller-Hinton Broth based microdilution assay
[2] = test system: Staphylococcus aureus; assay: Antibacterial activity against Staphylococcus aureus ATCC 25923 assessed as reduction in bacterial growth incubated for 18 hrs by Mueller-Hinton Broth based microdilution assay
[3] = test system: Pseudomonas aeruginosa; assay: Antimicrobial activity against Pseudomonas aeruginosa ATCC 27853 assessed as reduction in microbial growth incubated for 18 hrs by Mueller-Hinton Broth based microdilution assay
[4] = test system: Escherichia coli; assay: Antibacterial activity against Escherichia coli ATCC 25922 assessed as reduction in bacterial growth incubated for 18 hrs by Mueller-Hinton Broth based microdilution assay
[5] = test system: Bacillus subtilis; assay: Antimicrobial activity against Bacillus subtilis ATCC 23857 assessed as reduction in microbial growth incubated for 18 hrs by Mueller-Hinton Broth based microdilution assay

## CC[C@H](C)[C@H](NC(=O)[C@H](CCCNC(=N)N)NC(=O)[C@H](CCCCN)NC(=O)[C@H](CC(C)C)NC(=O)[C@H](CC(C)C)NC(=O)CN)C(=O)N[C@@H](CCCCN)C(=O)N[C@H](C(=O)N[C@@H](CC(C)C)C(=O)N(C)[C@@H](CC(C)C)C(N)=O)[C@@H](C)O (H-GLLKRIKTL[NMeL]-NH2)
[1]
  MIC: > 128 µM
[2]
  MIC: > 128 µM
[3]
  MIC: 32 µM
[4]
  MIC: > 128 µM
[5]
  MIC: 64 µM

## CC[C@H](C)[C@H](NC(=O)[C@H](CCCNC(=N)N)NC(=O)[C@H](CCCCN)NC(=O)[C@H](CC(C)C)N(C)C(=O)[C@H](CC(C)C)N(C)C(=O)CN)C(=O)N[C@@H](CCCCN)C(=O)N[C@H](C(=O)N(C)[C@@H](CC(C)C)C(=O)N(C)[C@@H](CC(C)C)C(N)=O)[C@@H](C)O (H-G[NMeL][NMeL]KRIKT[NMeL][NMeL]-NH2)
[1]
  MIC: > 128 µM
[2]
  MIC: > 128 µM
[3]
  MIC: 128 µM
[4]
  MIC: > 128 µM
[5]
  MIC: > 128 µM

## CC[C@H](C)[C@H](NC(=O)[C@H](CCCNC(=N)N)NC(=O)[C@H](CCCCN)NC(=O)[C@H](CC(C)C)NC(=O)[C@H](CC(C)C)N(C)C(=O)CN)C(=O)N[C@@H](CCCCN)C(=O)N[C@H](C(=O)N[C@@H](CC(C)C)C(=O)N[C@@H](CC(C)C)C(N)=O)[C@@H](C)O (H-G[NMeL]LKRIKTLL-NH2)
[1]
  MIC: > 128 µM
[2]
  MIC: > 128 µM
[3]
  MIC: 32 µM
[4]
  MIC: > 128 µM
[5]
  MIC: 16 µM

## CC[C@H](C)[C@H](NC(=O)[C@H](CCCNC(=N)N)NC(=O)[C@H](CCCCN)N(C)C(=O)[C@H](CC(C)C)NC(=O)[C@H](CC(C)C)NC(=O)CN)C(=O)N(C)[C@@H](CCCCN)C(=O)N[C@H](C(=O)N[C@@H](CC(C)C)C(=O)N[C@@H](CC(C)C)C(N)=O)[C@@H](C)O (H-GLL[NMeK]RI[NMeK]TLL-NH2)
[1]
  MIC: > 128 µM
[2]
  MIC: > 128 µM
[3]
  MIC: 128 µM
[4]
  MIC: > 128 µM
[5]
  MIC: > 128 µM

## CC[C@H](C)[C@H](NC(=O)[C@H](CCCNC(=N)N)NC(=O)[C@H](CCCCN)NC(=O)[C@H](CC(C)C)NC(=O)[C@H](CC(C)C)NC(=O)CN)C(=O)N(C)[C@@H](CCCCN)C(=O)N[C@H](C(=O)N[C@@H](CC(C)C)C(=O)N[C@@H](CC(C)C)C(N)=O)[C@@H](C)O (H-GLLKRI[NMeK]TLL-NH2)
[1]
  MIC: > 128 µM
[2]
  MIC: > 128 µM
[3]
  MIC: 128 µM
[4]
  MIC: > 128 µM
[5]
  MIC: 128 µM

## CC[C@H](C)[C@@H](C(=O)N[C@@H](CCCCN)C(=O)N[C@H](C(=O)N[C@@H](CC(C)C)C(=O)N[C@@H](CC(C)C)C(N)=O)[C@@H](C)O)N(C)C(=O)[C@H](CCCNC(=N)N)NC(=O)[C@H](CCCCN)NC(=O)[C@H](CC(C)C)N(C)C(=O)[C@H](CC(C)C)NC(=O)CN (H-GL[NMeL]KR[NMeI]KTLL-NH2)
[1]
  MIC: > 128 µM
[2]
  MIC: > 128 µM
[3]
  MIC: > 128 µM
[4]
  MIC: > 128 µM
[5]
  MIC: 128 µM

## CC[C@H](C)[C@H](NC(=O)[C@H](CCCNC(=N)N)NC(=O)[C@H](CCCCN)NC(=O)[C@H](CC(C)C)NC(=O)[C@H](CC(C)C)NC(=O)CN)C(=O)N[C@@H](CCCCN)C(=O)N[C@H](C(=O)N(C)[C@@H](CC(C)C)C(=O)N[C@@H](CC(C)C)C(N)=O)[C@@H](C)O (H-GLLKRIKT[NMeL]L-NH2)
[1]
  MIC: > 128 µM
[2]
  MIC: > 128 µM
[3]
  MIC: 28 µM
[4]
  MIC: > 128 µM
[5]
  MIC: 128 µM

## CC[C@H](C)[C@H](NC(=O)[C@H](CCCNC(=N)N)NC(=O)[C@H](CCCCN)NC(=O)[C@H](CC(C)C)N(C)C(=O)[C@H](CC(C)C)NC(=O)CN)C(=O)N[C@@H](CCCCN)C(=O)N[C@H](C(=O)N(C)[C@@H](CC(C)C)C(=O)N[C@@H](CC(C)C)C(N)=O)[C@@H](C)O (H-GL[NMeL]KRIKT[NMeL]L-NH2)
[1]
  MIC: > 128 µM
[2]
  MIC: > 128 µM
[3]
  MIC: > 128 µM
[4]
  MIC: > 128 µM
[5]
  MIC: > 128 µM

## CC[C@H](C)[C@@H](C(=O)N[C@@H](CCCCN)C(=O)N[C@H](C(=O)N[C@@H](CC(C)C)C(=O)N[C@@H](CC(C)C)C(N)=O)[C@@H](C)O)N(C)C(=O)[C@H](CCCNC(=N)N)NC(=O)[C@H](CCCCN)NC(=O)[C@H](CC(C)C)NC(=O)[C@H](CC(C)C)NC(=O)CN (H-GLLKR[NMeI]KTLL-NH2)
[1]
  MIC: > 128 µM
[2]
  MIC: > 128 µM
[3]
  MIC: > 128 µM
[4]
  MIC: > 128 µM
[5]
  MIC: 128 µM

## CC[C@H](C)[C@H](NC(=O)[C@H](CCCNC(=N)N)NC(=O)[C@H](CCCCN)NC(=O)[C@H](CC(C)C)N(C)C(=O)[C@H](CC(C)C)NC(=O)CN)C(=O)N[C@@H](CCCCN)C(=O)N[C@H](C(=O)N[C@@H](CC(C)C)C(=O)N[C@@H](CC(C)C)C(N)=O)[C@@H](C)O (H-GL[NMeL]KRIKTLL-NH2)
[1]
  MIC: > 128 µM
[2]
  MIC: > 128 µM
[3]
  MIC: 64 µM
[4]
  MIC: > 128 µM
[5]
  MIC: 64 µM
